Laboratory results taken from US20050032743A1, “Compositions and method for steroid homeostasis” (priority 2002, published 2005).
“And” between values parts separate entries of the source, which are not always exact repeats. Identical values can stand only once.

Assays:
[1] = test system: serum/plasma concentrations of testosterone, 25-hydroxy vitamin D, and dehydroepiandrosterone; assay: Effect of calcium fructoborate on selected steroids in healthy volunteers; format: in vivo, human; settings: for DHEA (dehydroepiandrosterone serum/plasma concentration) / TES (Testosterone serum/plasma concentration) / VITD (Vitamin D serum/plasma concentration): individual volunteer
Procedure: A group of healthy volunteers was given after obtaining their informed consent a daily oral dose of 6 mg Calcium fructoborate (as prepared in Example 1 above) for a period of 60 days, and the serum/plasma concentrations of testosterone, 25-hydroxy vitamin D, and dehydroepiandrosterone was determined in an independent clinical laboratory. Table 1 below summarizes the results in which TES refers to ng/ml Testosterone, DHEA refers to mcg/ml dehydroepiandrosterone, and VITD refers to ng/ml Vitamin D. The first number is the serum/plasma concentration at the beginning of the trial while the second number is the serum/plasma concentration after 60 days.

[2] = test system: Vitamin D deficient Sprague Dawley rats; assay: Effect of calcium fructoborate on bone density in vitamin D deficient rats; format: in vivo
Procedure: Vitamin D deficient Sprague Dawley rats (21 days old) were divided into three groups and fed a regulated vitamin D deficient diet (0.47% Ca, 0.3% P) over a period of 9 weeks. The diet of the first group was supplemented with calcium fructoborate at 30 mcg/gm, the diet of the second group was supplemented with calcium fructoborate at 185 mcg/gm, and the diet of the third group was left unchanged as a control group. At the end of the test period animals of all three groups were evaluated for increase in vitamin D levels and increase in bone density.

[3] = after 60 days of daily oral 6 mg (second number)
[4] = at the beginning of the trial (first number)
[5] = daily oral 6 mg, 60 days, four volunteers
[6] = severely vitamin D deficient rats, 9 weeks

calcium fructoborate
DHEA (dehydroepiandrosterone serum/plasma concentration) [1, 3]: 2.1 mcg/ml (2×) and 4.1 mcg/ml and 2.95 mcg/ml
TES (Testosterone serum/plasma concentration) [1, 3]: 14.1 ng/mL and 8.2 ng/mL and 7.8 ng/mL and 8.0 ng/mL
VITD (Vitamin D serum/plasma concentration) [1, 3]: 9.9 ng/mL and 16.1 ng/mL and 15.8 ng/mL and 12.0 ng/mL
DHEA (dehydroepiandrosterone serum/plasma concentration) [1, 4]: 1.9 mcg/ml (2×) and 3.5 mcg/ml and 2.75 mcg/ml
TES (Testosterone serum/plasma concentration) [1, 4]: 11.9 ng/ml and 6.3 ng/ml and 6.2 ng/ml (2×)
VITD (Vitamin D serum/plasma concentration) [1, 4]: 7.9 ng/mL and 12.1 ng/mL and 11.8 ng/mL and 9.3 ng/mL
serum/plasma concentration of various steroids ([1]; daily oral 6 mg, 60 days): significantly increased
Average increase DHEA [1, 5]: 11%
Average increase TES [1, 5]: 25%
Average increase VITD [1, 5]: 28%
bone ash increase over the control ([2]; first test group, diet supplemented at 30 mcg/gm, 9 weeks): 1.4%
bone ash increase over the control ([2]; second test group, diet supplemented at 185 mcg/gm, 9 weeks): 5.8%
conservation or biosynthesis of vitamin D [2, 6]: did not conserve or promote biosynthesis of vitamin D
growth of the animals [2, 6]: failed to promote growth of the animals
raising the serum calcium concentration above the control [2, 6]: failed
bone density ([2]; under vitamin D deficiency conditions): increased the bone density
